Measured values: patent publication US10004225B2, “Wearable insect repelling patch” (S. C. Johnson & Son, Inc., priority 2005, dated 2018)

Experiments:
[1] = @ 25° C.; cited from earlier work
mosquitoes = test: Three-chamber test apparatus, mosquito personal area repellency of hung patches with human test subject as attractant; format: in vivo; conditions: Example 1, 2 patches 103 cm^2, 60 mg each; for % Repellency: no adhesive
Procedure: Various patch sizes and insect repellents were tested, initially using the test apparatus shown schematically generally at 20 in FIG. 3. The test apparatus 20 has a sample chamber 22, connected to a mosquito chamber 24, which is connected via an opening 34 to a remote chamber 26. Each chamber is generally cubical, with a volume of about 0.43 m^3.
The sample chamber 22 has an open end 28 on the side remote from the mosquito chamber 24. A screen 30 divides the sample chamber 22 from the mosquito chamber 24. The opening 34 between the mosquito chamber 24 and the remote chamber 26 is slightly constricted by side walls 32. However, the opening 34 is still sufficiently large that mosquitoes can freely move between the mosquito and remote chambers 24 and 26.
Four, screened, low-flow exhaust ports 36 are located in the side walls 32, the exhaust ports facing the open end 28. Air is drawn through the exhaust ports 36 and exhausted from the mosquito chamber 24 at a rate sufficient to draw air in through the open end 28 but insufficient to affect the flying of mosquitoes placed in the mosquito chamber 24 or to disturb the air in the remote chamber 26.
For each test, a human test subject 38 is placed at the open end 28 of the sample chamber 22, the test subject's breath providing the warmth, CO2, and moisture known to be human attractants for mosquitoes. The exhaust ports 36 pull air, along with those attractants, though the open end 28 and on through the sample chamber 22, the screen 30, and the mosquito chamber 24. The attractants thus leave the apparatus 20 without entering the remote chamber 26.
Mosquitoes are placed in the mosquito chamber 24 and are quickly attracted to the screen 30 by the human attractants. The open end 28 is large enough to expose primarily the upper torso and head of the test subject. Two patches 10 are hung one foot into the sample chamber 22 and approximately 20 cm down from the chamber's top (except as was done otherwise in particular experiments, as is noted, below).
Percent repellency was calculated as the percent of mosquitoes that had been initially introduced into the mosquito chamber 24 (most of which were attracted to the screen 30 before the patches 10 were put in place), that then were repelled from the screen when the patches were introduced. The “repellency” indicated in the table, below, for time zero reflects the mosquitoes that were not yet attracted to the screen 30 by the time the test patches 10 were introduced. […] The patches 10 used were 103 cm^2 in size, with no adhesive layer 18.
The patch material was a non-woven cloth material comprised of rayon, polyester, and polypropylene (as described in published U.S. Patent Application US20040082248), dosed with 60 mg of the active ingredient. The controls used no patches.
The same test apparatus 20 was used in the same way as described in Example 1, with the following changes. When a test included four patches 10, two were hung as in Example 1, and two were hung about 13 cm from the bottom of the chamber to simulate patches worn on the shoulders and at the waist of a user. In one test, as indicated in the table, below, the patches 10 were attached to the test subject's chest. Each individual patch was treated with the amount of insect repellent indicated. Time is shown in minutes.

## CC=C[C@@H]1[C@@H](C(=O)OCc2c(F)c(F)c(COC)c(F)c2F)C1(C)C (racemic) [metofluthrin, 2,3,5,6-tetrafluoro-4-methoxymethylbenzyl (EZ)-(1RS,3RS)-2,2-dimethyl-3-(prop-1-enyl)-cyclopropanecarboxylate]
[1]
  Vapor pressure: 3.4 × 10^−6 mmHg @
mosquitoes
  personal area repellency (result in words): successful personal area repellency
mosquitoes; 5 min
  % Repellency: 72%
mosquitoes; 10 min
  % Repellency: 92%
mosquitoes; 15 min
  % Repellency: 96%
mosquitoes; 20 min
  % Repellency: 98%
mosquitoes; time 0 min (mosquitoes not yet attracted to screen)
  % Repellency: 10%
